Test results: patent US7462605B2, “Phosphoramidate compounds and methods of use” (Celmed Oncology (USA), Inc., priority 2002, dated 2008)

Tests used:
MCF7TDX cells = assay: 96-well combination cytotoxicity assay (crystal violet) with NB1011, MCF7TDX; type: cell-based, human; details: drug combined with NB1011, MCF7TDX; for CI (average combination index): 96-well crystal violet, 72 hour; as to Interaction: key: Syn = synergy; Ant = antagonism; Add = additivity
Description: Cell lines: Normal human colon epithelial cells (CCD18co) and skin fibroblasts (Det55 1) were purchased from ATCC (Rockville,Md.). MCF7TDX, human breast carcinoma cells resistant to 2 μM Tomudex were obtained from Dr. Patrick Johnston, Queens University, Belfast.
The medium was renewed or the cells were passaged about every three days to maintain optimal growth conditions. Normal cells were passaged a maximum of 15 times to avoid senescence.
Cytotoxicity Studies: 384-well interaction screening assay. 500 cells per well were transferred to a 384-well tissue culture plate (Corning Inc., Corning, N.Y.) and allowed to attach for 24 hours in standard culture conditions. […] 96-well combination cytotoxicity assay. […] Compounds were then applied in duplicate half log serial dilutions. Each compound was tested separately, and mixed together at a single molar ratio approximately equal to the ratio of the individual IC50 values. After an additional 72 hour incubation, cells were washed once with PBS and stained with 0.5% crystal violet in methanol. Plates were washed gently in water to remove unbound stain and allowed to dry overnight. […] Sigmoid curves were fit according to the Hill inhibitory Emax model, and IC50 calculated as the average of three or more separate determinations. […] Briefly, the ICso and the slope parameter (m) for each agent alone were determined from the median effect plot, an x,y plot of log(D) vs log (fa/fu) based on Chou's median effect equation: fa/fu=(D/Dm)^m [Equation 1]
(§1) Only experiments with linear correlation coefficients (r) >0.9 were accepted for analysis. A combination index (CI) was then calculated to assess synergism or antagonism according to the following equation which assumes an independent mechanism of drug action (mutual exclusivity): CI=(D)1/(Dx)1+(D)2/(Dx)2+(D)1(D)2/(Dx)1 (Dx)2 [Equation 2]
(§2) where (D)1 and (D)2 are the concentrations of drug 1 and drug 2 which combined produce x% inhibition, and (Dx)1 and (Dx)2 are the concentrations of each drug which alone produce x% inhibition. CI=1 indicates an additive interaction, CI<1 indicates synergy, and CI>1 indicates antagonism. For each experiment Cl's from several different effect levels and concentrations of a constant molar ratio were averaged.

[1] = system: Det551 normal skin fibroblasts; assay: 96-well combination cytotoxicity assay (crystal violet) with NB1011, Det551; type: cell-based, human; details: for Interaction: drug combined with NB1011, Det551; for CI (average combination index): drug combined with NB1011, Det551, 96-well crystal violet, 72 hour; as to Interaction: key: Syn = synergy; Ant = antagonism; Add = additivity
Description: (§3) Cell lines: Normal human colon epithelial cells (CCD18co) and skin fibroblasts (Det55 1) were purchased from ATCC (Rockville,Md.). MCF7TDX, human breast carcinoma cells resistant to 2 μM Tomudex were obtained from Dr. Patrick Johnston, Queens University, Belfast. […] The MCF7TDX and the H630R10 cell lines have been previously described in Drake, J. C. et al. (1996) and Copur, S. et al. (1995) respectively.
(§4) Culture Conditions: All cells were cultured under standard conditions of 37° C., 95% humidified air, 5% CO2 in RPMI 1640 culture medium containing 10% fetal calf serum (Life Technologies) and penicillin/streptomycin/fungizone. […] The medium was renewed or the cells were passaged about every three days to maintain optimal growth conditions. Normal cells were passaged a maximum of 15 times to avoid senescence.
(§5) Cytotoxicity Studies: 384-well interaction screening assay. 500 cells per well were transferred to a 384-well tissue culture plate (Corning Inc., Corning, N.Y.) and allowed to attach for 24 hours in standard culture conditions. Compounds were then applied in a bidirectional (checker board) pattern (Chou, T. C. and Talalay, P. (1984)). Following a 5-day incubation, the redox indicator dye, alamarBlue (AccuMed International, Westlake, Ohio) was added to each well at a 10% v/v ratio, and fluorescence was monitored at 535 excitation, 595 emission. Cytotoxic effect levels and drug interactions were assessed by the combination index method (Chou, T. C. and Talalay, P. (1984) and Bible, K. C. et al. (1997)), described briefly below. 96-well combination cytotoxicity assay. Exponentially growing cells were transferred at a density of 1.0-5.5×10^3 cells per well to a 96-well tissue culture plate and allowed to attach for 24 hours. Compounds were then applied in duplicate half log serial dilutions. Each compound was tested separately, and mixed together at a single molar ratio approximately equal to the ratio of the individual IC50 values. After an additional 72 hour incubation, cells were washed once with PBS and stained with 0.5% crystal violet in methanol. Plates were washed gently in water to remove unbound stain and allowed to dry overnight. […] Sigmoid curves were fit according to the Hill inhibitory Emax model, and IC50 calculated as the average of three or more separate determinations. Where applicable, the combination index for multiple drug effects was calculated according to the median-effect principle (Chou, T. C. and Talalay, P. (1984)) using the CalcuSyn software from Biosoft (Ferguson, Mo.). Briefly, the ICso and the slope parameter (m) for each agent alone were determined from the median effect plot, an x,y plot of log(D) vs log (fa/fu) based on Chou's median effect equation: fa/fu=(D/Dm)^m [Equation 1]
as §1, §2

[2] = system: CCD18co normal colon epithelial cells; assay: 96-well combination cytotoxicity assay (crystal violet) with NB1011, CCD18co; type: cell-based, human; details: drug combined with NB1011, CCD18co; for CI (average combination index): 96-well crystal violet, 72 hour
Description: as §3, §4, §5, §1, §2

rHuTS = target: T1, rHuTS (Homo sapiens, UniProt P04818); assay: Inhibition of rHuTS reactions by Tomudex and 5-FdUMP (initial rates); type: biochemical; details: for initial rate of rHuTS reaction with inhibitor / rate as % of No Inhibitor: inhibitor 500 nM
T1 construct: His tag (from pET-28a(+)) (N); made in house; host or cells: E. coli BL21 (DE3)/pET-28a(+)
T1 sequence (P04818 whole entry): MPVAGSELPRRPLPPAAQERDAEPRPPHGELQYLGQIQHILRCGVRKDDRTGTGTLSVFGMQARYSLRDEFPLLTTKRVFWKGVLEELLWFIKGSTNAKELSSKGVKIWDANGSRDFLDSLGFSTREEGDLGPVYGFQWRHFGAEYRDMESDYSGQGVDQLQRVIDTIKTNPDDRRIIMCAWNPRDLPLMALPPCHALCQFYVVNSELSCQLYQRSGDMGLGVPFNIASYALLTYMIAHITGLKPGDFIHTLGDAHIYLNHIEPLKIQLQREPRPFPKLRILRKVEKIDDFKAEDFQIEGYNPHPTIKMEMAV
Description: (§6) Enzyme Assays and Kinetic Measurements. Thymidylate synthase assays were done in 96 well Costar UV transparent plates in a reaction volume of 200 μL, consisting of 40 mM Tris pH 7.5, 25 mM MgCl2, 1 mM EDTA, 25 mM-mercaptoethanol, 125M dUMP, and 65 μM N5, N10-methylene tetrahydrofolate indicated. Tetrahydrofolate stock solutions were prepared by dissolving tetrahydrofolic acid (Sigma) directly into 0.2M Tris pH 7.5, 0.5 M-mercaptoethanol; stock solutions were stored at −80° C. N5, N10-methylene tetrahydrofolate was prepared by adding 12 μl of 3.8% formaldehyde to 1 ml of a 0.65 mM solution of tetrahydrofolate and incubating for 5 minutes at 37° C. N5, N10-methylene tetrahydrofolate was kept on ice and used within 2 hours of preparation.
Conversion of BVdUMP to fluorescent product(s) by thymidylate synthase was measured in 200 μl thymidylate synthase reactions containing 125M BVdUMP in 96 well Dynex Microfluor Black “U” bottom microtiter plates using an excitation wavelength of 340 nm and emission wavelength of 595 nm. Fluorescence was measured with a Tecan Spectrafluor Plus fluorimeter.

[3] = target: T2, rHuTS (recombinant human thymidylate synthase) (Homo sapiens, UniProt P04818); assay: Enzyme kinetics of rHuTS with dUMP and BVdUMP; type: biochemical; details: rHuTS
T2 construct: His tag (from pET-28a(+)) (N); made in house; host or cells: E. coli BL21 (DE3)/pET-28a(+)
T2 sequence (P04818 whole entry): as above
Description: Enzyme Preparation. Cloned human thymidylate synthase plasmid pBCHTS was subcloned into E. coli. BL21 (DE3)/pET-28a(+) (Novagen) using the Ndel ñSacI insertion site, in order to add an amino terminal His tag. Enzyme was expressed in E. coli. by induction with IPTG, and purified by affinity chromatography on a Ni^2+ His Bind metal chelation resin (Novagen). The column Ni^2+ His Bind metal chelation column was washed with 20 mM Tris pH 7.9, 5 mM imidazole, 0.5M NaCl; thymidylate synthase activity was eluted with 20 mM Tris pH 7.9, 60 mM imidazole, 0.5M NaCl.
as §6
Enzyme kinetic constants (Km and Vmax) were determined for the human thymidylate synthase substrates dUMP and BVdUMP using the enzyme assay conditions described above. The initial rates of the enzyme reactions was determined by measuring the increase in A340 for the reaction with dUMP, and decrease in A294 for the reaction with BVdUMP. The catalytic efficiency of the enzyme (Kcat/Km) was calculated from the kinetic constants Km and Vmax.

Lactobacillus casei TS = target: T3, Lactobacillus casei TS (Lacticaseibacillus casei, UniProt P00469); details: cited from earlier work
T3 sequence (P00469 1-316): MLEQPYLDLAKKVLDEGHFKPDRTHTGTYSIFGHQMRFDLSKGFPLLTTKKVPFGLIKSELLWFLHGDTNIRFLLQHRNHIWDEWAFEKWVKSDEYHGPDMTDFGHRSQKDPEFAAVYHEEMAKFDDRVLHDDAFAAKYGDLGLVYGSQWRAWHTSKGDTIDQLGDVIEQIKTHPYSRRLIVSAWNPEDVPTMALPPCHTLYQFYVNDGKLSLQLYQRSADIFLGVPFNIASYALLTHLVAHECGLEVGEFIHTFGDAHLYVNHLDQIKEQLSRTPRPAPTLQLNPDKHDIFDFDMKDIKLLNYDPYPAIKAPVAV

[4] = BVdUMP reaction, read-out: Kl (of dUMP)

In the case of `O=[N+]([O-])c1ccc(CSc2ncnc3c2ncn3C2OC(CO)C(O)C2O)cc1` (stereo not shown) [p-Nitrobenzyl-Thioinosine (NBMPR), p-nitrobenzylthioinosine], the Interaction (MCF7TDX cells) is reported as “Syn”, the “CI (average combination index)” value (MCF7TDX cells) is reported as 0.57 and the Interaction [1] is reported as “Ant”. The “CI (average combination index)” value [1] was 1.43, the Interaction [2] was “Ant” and the “CI (average combination index)” value [2] was 3.93.
For `CC[C@]1(O)C[C@@H]2CN(CCc3c([nH]c4ccccc34)[C@@](C(=O)OC)(c3cc4c(cc3OC)N(C)[C@H]3[C@@](O)(C(=O)OC)[C@H](OC(C)=O)[C@]5(CC)C=CCN6CC[C@]43[C@@H]65)C2)C1` [Vinblastine], the Interaction (MCF7TDX cells) was “Ant”, the Interaction [1] was “Syn” and the Interaction [2] was “Syn”.
With `Cc1nc2ccc(CN(C)c3ccc(C(=O)N[C@@H](CCC(=O)O)C(=O)O)s3)cc2c(=O)[nH]1` [Tomudex] the “initial rate of rHuTS reaction with inhibitor” value (“initial rate … with inhibitor” for short) (rHuTS; BVdUMP + THF) was 67 ± 3 RFU/min, the “initial rate … with inhibitor” value (rHuTS; BVdUMP − THF) was 34 ± 3 RFU/min and the “initial rate … with inhibitor” value (rHuTS; dUMP + THF) was 690 ± 40 nmol/min.
For `O=C1[O][Pt]2([NH][C@@H]3CCCC[C@H]3[NH]2)[O]C1=O` [Oxaliplatin], the Interaction (MCF7TDX cells) was “Ant”.
For `OCCN(CCO)c1nc(N2CCCCC2)c2nc(N(CCO)CCO)nc(N3CCCCC3)c2n1` [Dipyridamole, dipyridamole], the Interaction (MCF7TDX cells) was “Syn”, the “CI (average combination index)” value (MCF7TDX cells) was 0.51 and the Interaction [1] was “Add”. The “CI (average combination index)” value [1] was 1.17, the Interaction [2] was “Ant” and the “CI (average combination index)” value [2] was 1.30.
With `O=c1ccn([C@H]2C[C@H](O)[C@@H](COP(=O)(O)O)O2)c(=O)[nH]1` [dUMP] the Kcat [3] was 0.2 s⁻¹, the “form of inhibition of the BVdUMP reaction (Michaelis-Menton kinetics)” value [3] was “competitive inhibition” and the Ki [3, 4] was 17.5 µM. For the same compound, the Km ([3]; substrate) was 7.7 µM, the “initial rate of rHuTS reaction, No Inhibitor” value (rHuTS; dUMP + THF, 30° C., increase in A340) was 1500 ± 20 nmol/min and the Ki (Lactobacillus casei TS; [4]) was 2 µM. The Kcat (Lactobacillus casei TS) was 6.4 s⁻¹ and the Km (Lactobacillus casei TS; substrate) was 3 µM.
For `O=c1[nH]c(=O)n([C@H]2C[C@H](O)[C@@H](COP(=O)(O)O)O2)cc1F` [5-FdUMP], the “initial rate … with inhibitor” value (rHuTS; BVdUMP + THF) was 44 ± 2 RFU/min, the “rate as % of No Inhibitor” value (rHuTS; BVdUMP + THF) was “(40%)” and the “initial rate … with inhibitor” value (rHuTS; BVdUMP − THF) was 93 ± 13 RFU/min. The “rate as % of No Inhibitor” value (rHuTS; BVdUMP − THF) was “(129%)”, the “initial rate … with inhibitor” value (rHuTS; dUMP + THF) was 290 ± 70 nmol/min and the “rate as % of No Inhibitor” value (rHuTS; dUMP + THF) was “(19%)”.
With `COc1cccc2c1C(=O)c1c(O)c3c(c(O)c1C2=O)C[C@@](O)(C(=O)CO)C[C@@H]3O[C@H]1C[C@H](N)[C@H](O)[C@H](C)O1` [Doxorubicin] the Interaction (MCF7TDX cells) was “Ant”.
